Literature values as cited in patent publication US11564931B2, “Low benzalkonium chloride bimatoprost ophthalmic compositions with effective penetration and preservation properties” (Somerset Therapeutics LLC, priority 2019, dated 2023).

Conditions: patients starting on monotherapy; Covert D et al. 2006
For `CCNC(=O)CCC/C=C\C[C@@H]1[C@@H](/C=C/[C@@H](O)CCc2ccccc2)[C@H](O)C[C@@H]1O` [bimatoprost, (Z)-7-[(1R, 2R, 3R, 5S)-3,5-Dihydroxy-2-[(1E, 3S)-3-hydroxy-5-phenyl-1-pentenyl]cyclopentyl]-5-N-ethylheptenamide], the “Rate of adjunctive medication use” value is listed as 23.2%.
In the case of `CC(C)OC(=O)CCC/C=C\C[C@@H]1[C@@H](CC[C@@H](O)CCc2ccccc2)[C@H](O)C[C@@H]1O` [latanoprost], the “Rate of adjunctive medication use” value is listed as 30.2%.
For `CC(C)OC(=O)CCC/C=C\C[C@@H]1[C@@H](/C=C/[C@@H](O)COc2cccc(C(F)(F)F)c2)[C@H](O)C[C@@H]1O` [travoprost], the “Rate of adjunctive medication use” value is listed as 22.5%.
